From patent US20180236080A1, “FAST-ACTING INSULIN COMPOSITION COMPRISING A CITRIC ACID SALT” (ADOCIA, priority 2017, published 2018)

Columns and labels:
[1] = biological target: hexameric form R6 of insulin aspart (Homo sapiens, UniProt P01308, P52D); conditions: insulin aspart 100 U/ml, FIG. 9 and FIG. 10
Excerpt: The loss of the signal at 240 nm is related to a destabilization of the hexameric form R6 and the passage from R6 form to T6 form.
FIG. 9 describes the CD signal at 240 nm (deg·cm^2·dmol^−1) on the ordinate and on the abscissa:
Circular dichroism has been performed at 240 nm on the following compositions (FIG. 10):

[2] = biological target: hexameric R6 form of insulin lispro (Homo sapiens, UniProt P01308, K53P/P52K); conditions: insulin lispro 100 IU/ml, FIG. 5 and FIG. 6
Excerpt: The loss of the signal at 240 nm is related to a destabilization of the hexameric R6 form and the passage from the R6 form to the T6 form.

[3] = cited from earlier work
[4] = at 4° C.; cited from earlier work

hexameric form R6 of insulin aspart, sequence (P01308 25-54 P52D limits assumed): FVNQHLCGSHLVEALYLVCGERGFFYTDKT
hexameric form R6 of insulin aspart, sequence (P01308 90-110 limits assumed): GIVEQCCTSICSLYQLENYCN
hexameric R6 form of insulin lispro, sequence (P01308 25-54 P52K/K53P limits assumed): as the sequence (P01308 25-54 P52D limits assumed) above, with D28K, K29P counted along it

Row | Impact on the CD signal at 240 nm / R6 form of insulin aspart [1] | Impact on the CD signal at 240 nm / R6 form of insulin lispro [2] | Compound | Delay of action compared to a fast-acting insulin analog ([3]; dissociation of hexamers into dimers and monomers, Brange J. et al. 1999) [minutes] | Time after which a hypoglycemic effect occurs ([3]; injected subcutaneously) [min] | Stability in the form of hexamers [4] [years]
1 | completely deconstructs the R6 form | completely deconstructs the R6 form | O=C(O)CN(CCN(CC(=O)O)CC(=O)O)CC(=O)O [EDTA] |  |  | 
2 |  |  | human insulin | ~20 | 60 | ~2
